Test results published in EP4741390A1, “BIARYL RING COMPOUND, INTERMEDIATE THEREOF, PREPARATION METHOD THEREFOR AND USE THEREOF” (Hangzhou Synrx Therapeutics Biomedical Technology Co., Ltd., priority 2023, dated 2025).
Where two headings read alike, the source gives them in different places.

Tests used:
DLD1 BRCA2-/- cells = experiment: Cell viability assay (CTG assay), DLD1 BRCA2-/- cells; format: cell-based; settings: Homo sapiens, DLD-1, 240 h; CellTiter Glo, read on Day 10, initial concentration 30 µM
Protocol: (§1) 2. Cell Viability Assay of Pol θ Inhibitor
(§2) The cell viability assay, i.e., the commonly used CTG assay, was conducted for the efficacy of the inhibitor in vitro using the CellTiter Glo reagent (Promega, G7573).

[1] = target: helicase domain of the Pol θ protein (Homo sapiens, UniProt O75417); format: biochemical
Chain of helicase domain of the Pol θ protein (O75417 102-554 limits assumed): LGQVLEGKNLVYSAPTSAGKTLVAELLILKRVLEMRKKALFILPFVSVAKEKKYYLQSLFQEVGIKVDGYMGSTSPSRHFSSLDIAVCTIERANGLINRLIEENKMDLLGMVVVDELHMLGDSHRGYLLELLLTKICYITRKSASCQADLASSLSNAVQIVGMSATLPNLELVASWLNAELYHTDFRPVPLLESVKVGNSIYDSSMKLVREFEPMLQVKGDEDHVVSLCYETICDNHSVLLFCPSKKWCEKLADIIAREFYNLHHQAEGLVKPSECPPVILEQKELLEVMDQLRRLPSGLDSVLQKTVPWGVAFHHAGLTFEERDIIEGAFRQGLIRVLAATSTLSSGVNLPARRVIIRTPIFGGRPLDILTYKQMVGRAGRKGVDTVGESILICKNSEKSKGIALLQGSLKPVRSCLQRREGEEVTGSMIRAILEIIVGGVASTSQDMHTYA
Protocol: Biochemical Activity Assay (ADP Glo Assay) of Pol θ Inhibitor
The specific assay method was as follows: • 1) The helicase domain of the Pol θ protein was purified by an insect system, to obtain the protein with a purity of >90%. ssDNA (5'-[sequence]-3', Hangzhou Yocon Biotechnology Co., Ltd.) was ordered as the substrate for the Pol θ protein; and a reaction buffer containing 10 mM DTT (Dithiothreitol), 20 mM MgCl2 and Tris-HCl pH 7.5 was prepared. • 2) The 2x ssDNA-Pol θ premix was prepared; the reaction was conducted in a 384-well plate; a control group with only buffer is set, and the premix was added to the rest of the groups.

DLD1 wild type = experiment: Cell viability assay (CTG assay), DLD1 wild type cells; format: cell-based; settings: Homo sapiens, DLD-1, 240 h; CellTiter Glo, read on Day 10, initial concentration 30 µM
Protocol: as §1, §2

[2] = ATPase activity, ADP-Glo, ssDNA substrate, 60 min at room temperature, initial concentration 10 µM, read-out: Biochemical experiment IC50

Structure (SMILES)	IC50 (DLD1 BRCA2-/- cells) [nM]	IC50 [1] [µM]	IC50 (DLD1 wild type) [nM]	IC50 [1, 2] [µM]
COc1cnc(C(F)F)cc1-c1cc(-n2cccc(F)c2=O)ncc1C(=O)Nc1nc(-c2ccc(Cl)cc2)ns1 [Example 23]	185	0.17	> 50000	
COc1cnc(C(F)F)cc1-c1cc(-n2cccc(F)c2=O)ncc1C(=O)Nc1nc(N2CCOCC2)ns1 [Example 24]	15.3	0.0203	> 5000	
COc1cnc(C(F)F)cc1-c1cc(-n2cccc(F)c2=O)ncc1C(=O)Nc1nc(N2CC3(COC3)C2)ns1 [Example 25, N-(3-(2-oxa-6-azaspiro[3.3]heptan-6-yl)-1,2,4-thiadiazol-5-yl)-2"-(difluoromethyl)-3-fluoro-5"-methoxy-2-oxo-2H-[1,2':4',4"-bipyridin]-5'-carboxamide]	242	0.0423	> 5000	
COc1cnc(Cl)cc1-c1cc(-n2cccc(F)c2=O)ncc1C(=O)Nc1nc(-c2c(C)cnn2C)ns1 [Example 26, 2"-chloro-N-(3-(1,4-dimethyl-1H-pyrazol-5-yl)-1,2,4-thiadiazol-5-yl)-3-fluoro-5"-methoxy-2-oxo-2H-[1,2':4',4"-terpyridin]-5'-carboxamide]	0.82		> 5000	0.00229
COc1cnc(C(F)F)cc1-c1cc(-n2cccc(F)c2=O)ncc1C(=O)Nc1nc(N2CC3CC3C2)ns1 (stereo not drawn) [Example 28, N-(3-(3-azabicyclo[3,1,0]hex-3-yl)-1,2,4-thiadiazol-5-yl)-2"-(difluoromethyl)-3-fluoro-5"-methoxy-2-oxo-2H-[1,2':4',4"-terpyridin]-5'-carboxamide]	24.2		> 5000	0.011
COc1cnc(C(F)F)cc1-c1cc(-n2cccc(F)c2=O)ncc1C(=O)Nc1nc(-c2c(C)ncn2C)ns1 [Example 32, 2"-(difluoromethyl)-N-(3-(1,4-dimethyl-1H-imidazol-5-yl)-1,2,4-thiadiazol-5-yl)-3-fluoro-5"-methoxy-2-oxo-2H-[1,2':4',4"-terpyridin]-5'-carboxamide]	13.1		> 5000	0.00611
COc1cnc(C(F)F)cc1-c1cc(-n2cccc(F)c2=O)ncc1C(=O)Nc1nc(C2CCC2)ns1 [Example 33, N-(3-cyclobutyl-1,2,4-thiadiazol-5-yl)-2"-(difluoromethyl)-3-fluoro-5"-methoxy-2-oxo-2H-[1,2":4'4"-bipyridin]-5'-carboxamide]	8.57	0.00411	> 5000	
